Consider 15 compounds from EPA's ToxValDB 9.5.

The structures appear in SMILES notation.

The subject of data set [1] is Rattus norvegicus. The conditions noted are these: oral, M/F; for NOEL: short-term, duration: 28 days, gavage, Crj:CD.
In data set [2] the test system is Rattus norvegicus. The conditions noted are these: for LEL: uterotrophic, Active.
The next data set deals with Mus musculus. The note with it: uterotrophic, Active.
For data set [3], the system named is Rattus norvegicus. The note with it: oral; for NOAEL: diet.
Data set [4] has as its system Rattus norvegicus.
In data set [5] the test system is Rattus norvegicus. This is another data set of the same source.
Data set [6] has as its system Rattus norvegicus. The conditions noted are these: subchronic; duration: 13 weeks; oral; diet; M; Sprague-Dawley; renal.
The mark [7] stands for this setting: Hershberger, duration: 10 days, oral, gavage, Sprague-Dawley, active + Androgenic + Negative + androgenic.
Where [8] appears, read: chronic, oral, gavage, F, increased kidney weight in female rats.
Where [9] appears, read: subchronic, duration: 13 weeks, inhalation, M/F, increased kidney weight in female rats and adrenal weight in male and female rats.
The mark [10] stands for this setting: subchronic, duration: 90 days, oral, M/F, hematologic, hepatic and renal toxicity.

As usually defined, the LD50 is the dose at which mortality reaches 50%. What is called NOAEL is the highest dose or exposure tested at which no adverse effect was seen. Broadly, the LOAEL is the lowest tested level that showed an adverse finding.

Take `C#C[C@]1(O)CC[C@H]2[C@@H]3CCc4cc(O)ccc4[C@H]3CC[C@@]21C` [17alpha-Ethinylestradiol]: the NOEL in the data set on Rattus norvegicus [1] (Body Weight Changes: decrease + Food Consumption: decrease + Blood Chemistry: A/G decrease >0 Cho decrease 0 Alp increase, gamma-GTP …) was below 0.01 mg/kg-day; with Rattus norvegicus [2] (setting [7]), 10 mg/kg-day. For the same compound, the LOEL in the data set with Rattus norvegicus [2] (setting [7]) is 50 mg/kg-day. Further, the LEL was found to be 0.125 mg/L in the data set with Rattus norvegicus [2] (duration: 1 days, dermal); 0.001 mg/kg-day in the data set with Rattus norvegicus [2] (duration: 3 days, oral, diet); 0.03 mg/kg-day with Rattus norvegicus [2] (duration: 4 days, oral); 0.000342 mg/kg-day in the data set on Rattus norvegicus [2] (duration: 4 days, oral, diet); 0.01 mg/kg-day with Rattus norvegicus [2] (duration: 21 days, oral); 0.2 mg/kg-day with Rattus norvegicus [2] (duration: 28 days, oral). In addition, the LEL in the data set on Mus musculus (duration: 0 days, oral, diet) was found to be 0.0001 ppm; in the data set with Mus musculus (duration: 4 days, injection, subcutaneous), 0.002 mg/kg-day. The “LEL (fractional dose of pill)” value with Mus musculus (duration: 3 days, oral) amounted to 0.001.
Consider `CC(C)CCCCCCc1ccc(O)cc1` [4-Nonylphenol, branched], for which, in the data set with Rattus norvegicus [3] (acute), the LD50 worked out at 1880 mg/kg. Further, the NOAEL in the data set with Rattus norvegicus [3] (reproduction developmental, Sprague-Dawley) was found to be 15 mg/kg-day; in the data set with Rattus norvegicus [3] (short-term, duration: 28 days, Crl:CD(SD) BR), 100 mg/kg-day; in the data set with Rattus norvegicus [3] (subchronic, duration: 90 days, Sprague-Dawley) it was 50 mg/kg-day. Moreover, in the data set with Rattus norvegicus [1] (Deaths + Clinical Observation: Salivation, Urinary incontinence Abnormal estrus cycle + Hematology: Ret increase, RBC decrease, Plt increase…), the NOEL was determined as 10 mg/kg-day. The LEL with Rattus norvegicus [2] (duration: 3 days, oral) is 190 mg/kg-day; with Mus musculus (duration: 3 days, injection, subcutaneous), 1000 mg/kg-day.
In the case of `C=C(C)c1ccccc1` [alpha-Methylstyrene], in the data set with Rattus norvegicus [4] (chronic, duration: 197 days, inhalation, intermittent, Kidney: Increased weight + Liver: Increased weight), the NOEL came to 970 mg/m3.
The compound `S=C([S-])NCCNC(=S)[S-].S=C([S-])NCCNC(=S)[S-].[Mn+2].[Zn+2]` [Mancozeb] registered an NOEL in the data set with Rattus norvegicus [4] (chronic, duration: 90 weeks, oral, diet, Thyroid: Goitrogenic effects) of 2.9 mg/kg-day.
As for `CC(C)c1ccccc1` [Cumene], the no observed adverse effect level (NOAEL) in the data set on Rattus norvegicus [4] (chronic, duration: 194 days, oral, gavage, Kidney: Increased weight) was 154 mg/kg-day; in the data set on Rattus norvegicus [4] (short-term, duration: 4 weeks, inhalation, intermittent, Central nervous system: Involvement + Nose: Irritation) it was 517 mg/m3; in the data set with Rattus norvegicus [5] (setting [8]) it was 110 mg/kg-day; in the data set with Rattus norvegicus [5] (setting [9]), 2440 mg/m3. Also, the LOAEL in the data set on Rattus norvegicus [5] (setting [8]) turned out to be 331 mg/kg-day; in the data set with Rattus norvegicus [5] (setting [9]), 5910 mg/m3.
As to `COC(=O)c1ccc(C(=O)OC)cc1` [Dimethyl terephthalate], the lowest observed adverse effect level (LOAEL) in the data set with Rattus norvegicus [4] (chronic, duration: 103 weeks, oral, diet, Kidney: Inflammation) worked out at 125 mg/kg-day; in the data set on Rattus norvegicus [5] (chronic, oral, diet, M/F, chronic kidney inflammation), 125 mg/kg-day. In the data set on Rattus norvegicus [1] (subchronic, duration: 90 days, diet, Body Weight Changes: Weight gain decrease + Histopathology: Liver: Hepatocyte hypertrophy, diffuse), the NOAEL stood at 480 mg/kg-day.
In the data set on Rattus norvegicus [4] (chronic, duration: 130 weeks, oral, diet, Liver: Hypertrophy), `ClC1=C(Cl)[C@]2(Cl)C3C(Cl)C(Cl)CC3[C@@]1(Cl)C2(Cl)Cl` (some centres not stated) [Chlordane] yielded an NOEL of 0.055 mg/kg-day.
For the compound `CCOP(=O)(/N=C1\SCC(C)S1)OCC` (configuration not stated) [Mephosfolan], the NOEL in the data set on Rattus norvegicus [4] (chronic, duration: 17 weeks, oral, diet, Blood: Decreased cholinesterase activity + Brain: Decreased cholinesterase activity + Erythrocytes: Decreased cholinesterase activity + …) came to 0.09 mg/kg-day.
As for `S=C([S-])NCCNC(=S)[S-].[Zn+2]` [Zineb], the lowest observed adverse effect level (LOAEL) in the data set on Rattus norvegicus [4] (chronic, duration: 2 years, oral, diet, hyperplasia) stood at 25 mg/kg-day; in the data set with Rattus norvegicus [5] (chronic, oral, M/F, thyroid hyperplasia), 25 mg/kg-day.
As for `C=CBr` [Vinyl bromide], the LOAEL was 42.4 mg/m3 in the data set on Rattus norvegicus [4] (chronic, duration: 24 months, inhalation, intermittent, Liver: Basophilic foci + Liver: Eosinophilic foci + Liver: Hypertrophy); 43 mg/m3 in the data set with Rattus norvegicus [5] (chronic, inhalation, M/F, hypertrophy, basophilic and eosinophilic foci, in the liver).
On to `COP(=O)(NC(C)=O)SC` (configuration not stated) [Acephate], for which the lowest-observed-adverse-effect level (LOAEL) in the data set on Rattus norvegicus [4] (subchronic, duration: 13 weeks, oral, diet, Brain: Decreased cholinesterase activity) is 0.192 mg/kg-day. The compound further displayed an LEL in the data set with Rattus norvegicus [5] (subchronic, duration: 90 days, oral, diet, M, Inhibition of brain ChE) of 0.12 mg/kg-day.
Consider `O=C(O)COc1ccc(Cl)cc1Cl` [2,4-Dichlorophenoxyacetic acid], for which the NOAEL came to 1 mg/kg-day in the data set with Rattus norvegicus [4] (chronic, duration: 91 days, oral, diet, Blood: Toxicity + Kidney: Toxicity + Liver: Toxicity); 16.6 mg/kg-day in the data set on Rattus norvegicus [6]; 1 mg/kg-day with Rattus norvegicus [5] (setting [10]). The compound also displayed an LOAEL in the data set with Rattus norvegicus [5] (setting [10]) of 5 mg/kg-day.
As to `C=CC(=C)Cl` [Chloroprene], the no observed adverse effect level (NOAEL) came out at 36.2 mg/m3 with Rattus norvegicus [4] (chronic, duration: 2 years, inhalation, intermittent, Hair: Alopecia + Whole body: Decreased weight gain) and 116 mg/m3 in the data set on Rattus norvegicus [4] (subchronic, duration: 90 days, inhalation, Olfactory epithelium: Degeneration).
As to `CC1CO1` (racemic) [(+/-)-1,2-Propylene oxide], the lowest-observed-adverse-effect level (LOAEL) in the data set with Rattus norvegicus [4] (chronic, duration: 2 years, inhalation, intermittent, Epithelium: Unspecified) came to 71 mg/m3; in the data set with Rattus norvegicus [5] (chronic, duration: 2 years, inhalation, M/F, nest-like infolds of the nasal respiratory epithelium) it was 71 mg/m3.
`COP(=S)(OC)Oc1cc(Cl)c(Br)cc1Cl` [Bromofos]: in the data set on Rattus norvegicus [4] (reproduction developmental, oral, diet, Blood: Decreased cholinesterase activity + Liver: Decreased cholinesterase activity), the no-observed-adverse-effect level (NOAEL) is 5 mg/kg-day.
